# According to ChEMBL document CHEMBL5634140, “Discovery of benzyloxy benzamide derivatives as potent neuroprotective agents against ischemic stroke” (Eur J Med Chem, 2023):
# Calls of active or inactive are those of the source. No cut-off for these calls is given here.
# Columns and labels:
# SH-SY5Y [1] = assay: Neuroprotective activity against glutamate induced human SH-SY5Y cells at 0.1 uM preincubated for 30 mins followed by glutamate addition and measured after 24 hrs by LDH based assay; assay type: functional; details: time 24.5 hrs
# SH-SY5Y [2] = assay: Neuroprotective activity against glutamate induced human SH-SY5Y cells at 10 uM preincubated for 30 mins followed by glutamate addition and measured after 24 hrs by LDH based assay; assay type: functional; details: time 24.5 hrs
# SH-SY5Y [3] = assay: Cytotoxicity against human SH-SY5Y cells at 25 uM incubated for 72 hrs by CCK8 assay; assay type: toxicity, cell-based
# SH-SY5Y [4] = assay: Neuroprotective activity against glutamate induced human SH-SY5Y cells at 1 uM preincubated for 30 mins followed by glutamate addition and measured after 24 hrs by LDH based assay; assay type: functional; details: time 24.5 hrs
# [5] = Apparent volume of distribution in Sprague-Dawley rat at 5 mg/kg, iv measured upto 24 hrs by LC-MS/MS analysis; assay type: ADME, organism-based; details: in vivo, read-out: Vz
# [6] = AUC(0 to t) in Sprague-Dawley rat at 5 mg/kg, iv measured upto 24 hrs by LC-MS/MS analysis; assay type: ADME, organism-based; details: in vivo
# [7] = AUC(0 to t) in Sprague-Dawley rat at 10 mg/kg, po measured upto 24 hrs by LC-MS/MS analysis; assay type: ADME, organism-based; details: in vivo
# [8] = Half life in Sprague-Dawley rat at 5 mg/kg, iv measured upto 24 hrs by LC-MS/MS analysis; assay type: ADME, organism-based; details: in vivo
# [9] = Cmax in Sprague-Dawley rat at 5 mg/kg, iv measured upto 24 hrs by LC-MS/MS analysis; assay type: ADME, organism-based; details: in vivo
# [10] = AUC(0 to infinity) in Sprague-Dawley rat at 5 mg/kg, iv measured upto 24 hrs by LC-MS/MS analysis; assay type: ADME, organism-based; details: in vivo
# [11] = Mean residence time in Sprague-Dawley rat at 5 mg/kg, iv measured upto 24 hrs by LC-MS/MS analysis; assay type: ADME, organism-based; details: in vivo
# Cortical neurone = assay: Neuroprotective activity against glutamate induced Sprague-Dawley rat primary cortical neuron at 0.1 to 10 uM preincubated for 30 mins followed by glutamate/glycine addition for 30 mins and measured after 24 hrs by LDH based assay; assay type: functional, cell-based; details: dose 0.1-10 µM, time 25.0 hrs
# [12] = Tmax in Sprague-Dawley rat at 10 mg/kg, po measured upto 24 hrs by LC-MS/MS analysis; assay type: ADME, organism-based; details: in vivo
# [13] = Mean residence time in Sprague-Dawley rat at 10 mg/kg, po measured upto 24 hrs by LC-MS/MS analysis; assay type: ADME, organism-based; details: in vivo
# [14] = AUC(0 to infinity) in Sprague-Dawley rat at 10 mg/kg, po measured upto 24 hrs by LC-MS/MS analysis; assay type: ADME, organism-based; details: in vivo, po, 10 mg/kg, 24 h
# [15] = Half life in Sprague-Dawley rat at 10 mg/kg, po measured upto 24 hrs by LC-MS/MS analysis; assay type: ADME, organism-based; details: in vivo
# [16] = Cmax in Sprague-Dawley rat at 10 mg/kg, po measured upto 24 hrs by LC-MS/MS analysis; assay type: ADME, organism-based; details: in vivo
# [17] = Oral bioavailability in Sprague-Dawley rat at 10 mg/kg measured upto 24 hrs by LC-MS/MS analysis; assay type: ADME, organism-based; details: in vivo, po, 10 mg/kg, 24 h
SMILES,Activity (SH-SY5Y [1]),Activity (SH-SY5Y [2]),Activity (SH-SY5Y [3]),Activity (SH-SY5Y [4]),further results
Nc1cc(Cl)cc(Cl)c1OCc1ccc(S(N)(=O)=O)cc1,<0%,33.84%,6.21%,15.52%,
Nc1cc(Cl)cc(Cl)c1OCc1ccc(C(=O)NCC(=O)O)cc1,18.96%,66.01%,5.67%,47.04%,
Nc1cc(Cl)cc(Cl)c1OCc1ccc(C(=O)NCCS)cc1,9.67%,61.07%,5.23%,35.12%,
CN(C)CCNC(=O)c1ccc(COc2c(N)cc(Cl)cc2Cl)cc1,2.56%,32.3%,1.52%,15.63%,
NCCCNC(=O)c1ccc(COc2c(N)cc(Cl)cc2Cl)cc1,21.18%,61.33%,1.77%,39.65%,Vd [5]: 24.7 L/kg; AUC(0-t) at 24 h [6]: 296 ng·h/mL; AUC(0-t) at 24 h [7]: 309 ng·h/mL; half-life [8]: 160 min; Cmax [9]: 471 ng/mL; AUC [10]: 317.96 ng·h/mL; MRT [11]: 1.46 h; Activity (Cortical neurone): Active; Tmax [12]: 1.5 h; MRT [13]: 3.26 h; AUC [14]: 365.22 ng·h/mL; half-life [15]: 118 min; Cmax [16]: 69.3 ng/mL; F [17]: 21.79%
NNC(=O)c1ccc(COc2c(N)cc(Cl)cc2Cl)cc1,5.89%,22.56%,0.59%,6.15%,
Nc1cc(Cl)cc(Cl)c1OCc1ccc(C(=O)NCCO)cc1,4%,41.58%,1.21%,26.31%,
Nc1cc(Cl)cc(Cl)c1OCc1ccc(C(=O)N[C@@H]2CCCC[C@H]2N)cc1,12.32%,63.06%,2.51%,41.87%,
Nc1ccccc1NC(=O)c1ccc(COc2c(N)cc(Cl)cc2Cl)cc1,14.78%,63.3%,0.24%,41.87%,
CS(=O)(=O)Nc1ccc(COc2c(N)cc(Cl)cc2Cl)cc1,15.4%,69.19%,3.57%,45.26%,
